Key:
Dark tobacco plants = conditions: for NNN content relative to the level of quantification: potassium chloride-treated samples 1, 2, 3, 5, and 6; for NNN content relative to the level of quantification / NAT content relative to the level of quantification: all potassium sulfate-treated samples; for NAT content relative to the level of quantification: potassium chloride-treated samples 3, 5, and 6
Description: A first, 0.5 acre unplanted plot of soil was treated with a nitrogen-containing fertilizer comprising urea (N—P—K: 46-0-0) at a rate of 150 pounds per acre and a fertilizer incorporating diammonium phosphate and phosphorus (N—P—K: 18-46-0) at a rate of 180 pounds per acre by broadcast application. […] All fertilizer applications were incorporated into the soil after application.
A second, 0.5 acre unplanted plot of soil was treated with a nitrogen-containing fertilizer comprising urea (N—P—K: 46-0-0) at a rate of 150 pounds per acre and a fertilizer incorporating diammonium phosphate and phosphorus (N—P—K: 18-46-0) at a rate of 180 pounds per acre by broadcast application. The following day, a potassium chloride fertilizer (N—P—K: 0-0-60) was broadcast applied at 180 pounds per acre. All fertilizer applications were incorporated into the soil after application.
Dark tobacco plants were independently grown and were transplanted as seedlings (approximately 6-10 inches in length) to both plots (with 2450 plants per fertilized plot) four days after application of the potassium sources to the soil. […] The tobacco plants from both plots were harvested about three months after UAN treatment, and the harvested plants were moved to a traditional 1-acre air-curing barn. The plants were cured in the barn for about a month and a half.
After curing the plants, the leaves were removed from the stalks. The fourth leaf from the upper stalk position of six plants from each plot was taken for analysis. Each of these twelve leaves was prepared by removing the mid-rib stem from the leaf lamina.
The lamina was milled and the content of certain components was evaluated by liquid chromatography-mass spectrometry (LCMS). In particular, the leaves were analyzed in triplicate for TSNA content (namely, NNN, NNK, NAT, and NAB content).

[1] = test system: enteric bacteria (gram negative bacteria); assay: Enteric bacteria counts (violet red bile agar) on field-treated tobacco leaf; type: in vivo; conditions: dark-air cured tobacco treated five hours prior to harvest; based on total bacteria counts before and after treatment
Description: (§1) Dark-air cured tobacco is treated five hours prior to harvest with one or more of a probiotic bacteria solution, and enzyme solution, and/or a 3% sodium chloride salt solution. The solution is applied using a backpack sprayer. Solutions are based on a 100 gallon solution per acre, using recommended plant spacings and dose per plant is provided below.
(§2) The treated tobacco is harvested and mid-stalk leaf samples are analyzed for total bacteria counts, enteric bacteria counts, and Lactobacillus counts. Ten grams of each treated tobacco sample is placed in Butterfields Phosphate Buffer and diluted 10^−2 to 10^−8 times with water. The treated tobacco sample dilutions are applied to plate count agar (PCA) for total aerobic bacteria counts, to violet red bile agar (VRBA) for gram negative bacteria counts, and to MRS for anaerobic (Lactobacillus) counts. The number of bacterial colonies, as visualized under magnification, are counted to estimate the total number of colony-forming units per gram, CFU/g.

total aerobic bacteria = assay: Total bacteria counts (plate count agar) on field-treated tobacco leaf; type: in vivo; conditions: dark-air cured tobacco treated five hours prior to harvest; based on total bacteria counts before and after treatment
Description: as §1, §2

Lactobacillus = Lactobacillus (anaerobic) counts on MRS from field-treated tobacco leaf; type: in vivo
Description: as §1, §2

Row | Structure (SMILES) | NAT content compared with potassium sulfate treatment (Dark tobacco plants; all cured leaf samples tested) | NNN content compared with potassium sulfate treatment (Dark tobacco plants; all cured leaf samples tested) | average decrease NAT with respect to the potassium sulfate-treated samples (Dark tobacco plants; cured leaf samples) | average decrease NNN with respect to the potassium sulfate-treated samples (Dark tobacco plants; cured leaf samples) | TSNA levels, particularly NNN and NNK, compared with leaves from potassium sulfate-treated soil (Dark tobacco plants; cured leaves) | NNN content relative to the level of quantification (Dark tobacco plants) | NAT content relative to the level of quantification (Dark tobacco plants) | enteric bacteria reduction after treatment [1] | total bacteria reduction after treatment (total aerobic bacteria) | Lactobacillus increase after treatment (Lactobacillus; dark-air cured tobacco treated five hours prior to harvest, based on total bacteria counts before and after treatment) | Lactobacillus bacteria change after treatment (Lactobacillus; treated tobacco material, Example 1)
1 | [Cl-].[K+] [Potassium Chloride, potassium chloride] | significant decreases | significant decreases | about 77% | about 69% | significantly lower | below the level of quantification | below the level of quantification |  |  |  | 
2 | [Cl-].[Na+] [3% NaCl solution, sodium chloride] |  |  |  |  |  |  |  | 76% | 94% | greater than 400% | significant increase
3 | O=S(=O)([O-])[O-].[K+].[K+] [Potassium Sulfate, potassium sulfate, reference compound] |  |  |  |  |  | well above such levels | well above such levels |  |  |  | 

— US9980509B2, “Modification of bacterial profile of tobacco” (R.J. REYNOLDS TOBACCO COMPANY, priority 2013, dated 2018)
